Reference: a melting point compilation (Tetko et al.; mined from patent text by program, amines drawn as free bases though some values may be those of a salt)

Point of comparison: `CCOC(=O)c1c[nH]c2ccc(OC3CCN(C)CC3)nc12`, melting point 232 °C. Against it:
- CCCCc1nn(-c2cc(NC(=O)CC)ccc2C(F)(F)F)c(=O)n1Cc1ccc(-c2ccccc2S(=O)(=O)NC(=O)c2ccccc2F)cc1F — lower, 119 to 122 °C
- N[C@@H](Cc1ccccc1)C(=O)NCC(=O)Nc1ccc([N+](=O)[O-])cc1C(=O)c1ccccc1 — lower, 144 to 146 °C
- CNc1nc(Nc2ccc(Cl)c(Cl)c2)ncc1NS(C)(=O)=O — higher, 263 to 266 °C
- Cc1nc(-n2ccccc2=O)sc1C(=O)NCc1ccc(F)cc1 — lower, 170 to 172 °C
- C(=C(c1ccccc1)c1ccccc1)C1CCN(CCCCCCCCCCc2cccnc2)CC1 — lower, 63 to 65 °C
- CCCCOC(=O)c1cc(O)c(O)c(C#N)c1 — lower, 135 to 140 °C
- O=c1[nH]c2cccc3c2n1CCC3 — lower, 216 °C
- CCOC(=O)c1cc(=O)c2[nH]ncc2[nH]1 — higher, 287 to 292 °C
- O=S(=O)(Nc1ccc2c(OCc3ccc(OC(F)(F)F)cc3)cccc2c1)C(F)(F)F — lower, 80 to 82 °C
- CC(=O)NC(Cc1c[nH]c2ccccc12)C(=O)OCc1cc(C)cc(C)c1 (stereo not given) — lower, 145 to 146 °C
- C=CC(c1ccccc1)c1c(C)c(OC(C)=O)c(C)c(C)c1O (stereo not given) — lower, 136 to 138 °C
- COc1cc(CC#Cc2c(C)nc(N)nc2N)cc(OC)c1OC — lower, 164 to 166 °C
- COc1nc(C)nc(C(F)(F)F)c1I — lower, 44 to 45 °C
- NC1Cc2cccc3[nH]c(=O)n(c23)C1 (stereo not given) — higher, > 300 °C
- COc1ncc(C(F)(F)F)cc1-c1cccn2nc(Nc3ccc(C4CCNCC4)cc3)nc12 — lower, 106 to 108 °C
- CCOC(=O)Cc1ccc(NC(=O)Nc2ccccc2Br)c(OC)n1 — lower, 160 to 163 °C
- Cn1ncnc1COc1nn2c(-c3ccccc3)nnc2c(Cl)c1N1CCCC1 — lower, 174 to 176 °C
- CCCc1c(O)ccc2c1OCCC2=O — lower, 126 to 129 °C
- Nc1cc(-c2ccccc2)nc2ccccc12 — lower, 162 to 164 °C
- CCS(=O)(=O)NC1CCCOc2c(C)cc(Cl)cc21 (stereo not given) — lower, 144 to 145 °C
- OC1C2CCN(CC2)C1C#Cc1ccc(-c2cccnc2)cc1 (stereo not given) — lower, 189 to 190 °C
- O=c1c2c(oc3ccccc13)O2 — lower, 66 to 67 °C
- COc1ccnc(NC(N)=S)c1 — lower, 214 to 217 °C
- Cn1ncnc1COc1nn2c(-c3ccccc3F)nncc2c1-c1cccs1 — lower, 196 to 197 °C
- COc1cc(Oc2cccc(C(F)(F)F)c2)nc(C(=O)NCCSCCF)c1 — lower, 82 to 84 °C
- C[C@H](C(=O)N[C@@H](COC(=O)C(C)(C)C)Cc1ccccc1)c1ccc(NS(C)(=O)=O)c(F)c1 — lower, 117 to 119 °C
- Cc1cn(-c2cc(NC(=O)c3ccc(C)c(C#Cc4ccc(NC5CCC5)nn4)c3)cc(C(F)(F)F)c2)cn1 — lower, 223 to 225 °C
- S=c1nc(-c2ccc(-c3ccccc3)cc2)[nH]n1Cc1ccccc1 — higher, 249 to 250 °C
- O=c1[nH]c2cc(NO)ccc2c(=O)n1CCCCN1CC=C(c2ccccc2)CC1 — lower, 187 to 189 °C
- COc1ccc(-c2c3c(cc4ccc(OC)c(OC)c24)C(=O)NC3=O)cc1 — higher, 288 to 290 °C
- Cc1[nH]c(=O)c(C#N)cc1-c1ccc(S(C)(=O)=O)cc1 — higher, 312 to 313 °C
- CCOP(=O)(/C=C/c1cn(-c2ccccc2)nc1OCc1ccc(OCc2nc(-c3cccc(OCC(=O)O)c3)oc2C)c(OC)c1)OCC — lower, 166 to 168 °C
- CNC(=O)c1cccc(NC(=O)Cc2ccc(C)cc2)c1 — lower, 174 to 175 °C
- CC(C)(C)C(=O)c1ccc(C(C)(C)C(=O)O)cc1 — lower, 128 to 130 °C
- CCCCCCCCCCCCCCCCCCNC(=O)c1ccccc1I — lower, 94 to 96 °C
- CC(C)CCC(O)C(CC1CCCCC1)NC(=O)C(Cc1c[nH]cn1)N(C)C(=O)C(Cc1ccccc1)NC(=O)N(C)CCN(C)C(=O)N1CCOCC1 (stereo not given) — lower, 89 to 92 °C
- CC(C)(C)OC(=O)NCc1ccc2cc(C(N)=O)[nH]c2c1 — lower, 209 to 210 °C
- Cc1ccn(-c2ccc(C(=O)N3Cc4cccnc4Nc4ccccc43)c(C(F)(F)F)c2)n1 — lower, 183 to 185 °C
- CCOC(=O)c1ccc(-c2cccc(OCc3ccc(COC(=O)c4ccccc4)c(COC(=O)c4ccccc4)c3)c2)nc1 — lower, 118 to 120 °C
- FC(F)(Cc1c[nH]c2ccc(-n3cnnc3)cc12)CN1CCC(OCc2ccccc2)CC1 — lower, 170 °C
- COc1ccc(CN2C(=O)CN(Cc3ccc4c(OC)ccnc4c3)S2(=O)=O)c(OC)c1 — lower, 128 to 132 °C
- COC(=O)C(Oc1cc(-n2c(=O)cc(C(F)(F)F)n(C)c2=O)c(F)cc1Cl)C(=O)OC — lower, 141 °C
- COC1(c2ccc(Sc3ccc(C(=O)c4ccc(C(F)(F)F)cc4)cc3)s2)CCOCC1 — lower, 86 to 87 °C
- CCCCCS(=O)(=O)NC(=O)CCc1cc(OCc2nnc(C)o2)nn1Cc1ccc(Cl)cc1Cl — lower, 156 to 158 °C
- CC(C)(C)c1ccc(OCCCN2CCC(C(O)(c3ccc(F)cc3)c3ccc(F)cc3)CC2)cc1 — lower, 126 to 127 °C
- CC(C)Cc1cc([N+](=O)[O-])c2c(c1O)C(=O)c1c(O)c(CC(C)C)cc([N+](=O)[O-])c1C2=O — lower, 198 to 200 °C
- N#CC1CN(C(=O)[C@H](NC(=O)c2c[nH]c3ncc(-c4ccc(N5CCOCC5)cc4)nc23)C2CC2)C1 — lower, 186 to 192 °C
- CC(C)c1ccc2nc3c(C(=O)O)cccn3c(=O)c2c1 — lower, 206 to 210 °C
- CCOC(=O)c1ncn2c1CN=C(c1ccccc1)c1cc(Cl)ccc1-2 — lower, 174 to 175 °C
- C[C@@H]1CCC[C@H](C)N1CCNc1ccnc2cc(Cl)ccc12 — lower, 138 to 139 °C
- C[C@@H]1CC[C@H](C(=O)O)Cc2onc(-c3ccc(Cl)cc3)c21 (relative stereo) — lower, 154 to 155 °C
- COc1ccc(COc2c(OC)ccc3c2CC(C(=O)O)N(C(=O)C(c2ccccc2)c2ccccc2)C3)cc1C (racemic) — lower, 140 to 142 °C
- O=C(O)c1cccc2ccc(-c3ccc([N+](=O)[O-])cc3)nc12 — higher, 272 to 274 °C
- Cc1cc(-c2ccc(C(F)(F)F)cc2)cc(-c2cccc(-c3ccnc(N)c3)n2)n1 — lower, 160 °C
- Cc1c(C(=O)O)cc(Cl)c2c1C(=O)CCS2 — lower, 190 to 192 °C
- CC(C)(C)OC(=O)C1CCCN1C(=O)NN (stereo not given) — lower, 83 to 84 °C
- COCCNC(=O)c1ccc(C(=O)NS(=O)(=O)c2ccc(CCNC(=O)CCC(C)C)cc2)cn1 — lower, 154 to 157 °C
- Cc1cc(C2(c3ccc(O)cc3)c3ccccc3-c3ccccc32)cc(C)c1O — lower, 90 to 105 °C
- Cc1cccc(C(=O)C2CCCc3cccnc32)c1 (stereo not given) — lower, 211 to 213 °C
- CCN1C(=O)C(C)(C)C(=O)N(C)c2cc(CN(CCn3c(=O)ccc4ccccc43)Cc3ccc(C)nc3C)ccc21 — lower, 159 to 160 °C
- O=C(NS(=O)(=O)c1ccc(O)cc1)c1ccc(Cl)cc1Cl — lower, 155 to 157 °C
- CC12CCC3C(CCC4=CC(=O)C=C(CO)C43C)C1CCC2=O (stereo not given) — lower, 201 to 202 °C
- C#CCOc1nc(C(F)(F)F)cc(=O)n1-c1cc(C(=O)OC(C)C)c(Cl)cc1F — lower, 117 to 119 °C
- [N-]=[N+]=NCC1=NN=C(c2ccc([N+](=O)[O-])cc2)c2cc3c(cc2C1)OCO3 — lower, 198 to 200 °C
- O=c1[nH]cnc2c1ncn2CCO — higher, 274 °C
- COC(=O)Cc1ccc2c(c1)C(=O)c1sccc1CO2 — lower, 80 to 81 °C
- COc1ccc(CSC2=NC(c3cccc([N+](=O)[O-])c3)C(C(=O)O)=C(C)N2)cc1 (stereo not given) — lower, 90 °C
- CCc1cc(CSCCNC(=C[N+](=O)[O-])NC)oc1CN(C)C — lower, 91 °C
- CCCCCCOc1ccc(-c2nc(-c3ccc(OCCCCCC)cc3O)nc(-c3c(C)cc(C)cc3C)n2)c(O)c1 — lower, 140 to 142 °C
- Cn1ncc(/C=C/C(=O)Nc2ccc(C(=O)O)cc2)c1-c1ccc(F)cc1 — higher, 291 to 292 °C
- COc1ccc(C(=O)c2c(F)cccc2F)cc1OC — lower, 100 to 101 °C
- CCN(CC)CCn1nc2c3c(c(CN)ccc31)Sc1ccc(OC)cc1-2 — lower, 74 to 76 °C
- Cc1c(Sc2ccccc2)c2cccc3c2n1C(CN1CCOCC1)CO3 (single isomer, unassigned; (+)) — lower, 126 to 128 °C
- C=CCOc1cc(Br)ccc1C(C)=NO — lower, 115 °C
- Cc1cc(NC(=O)C(C)(O)COc2ccc(CCCl)c(F)c2)ccc1[N+](=O)[O-] (stereo not given) — lower, 77 to 79 °C
- COC(C)C(O)(Cc1ccc(Cl)cc1Cl)c1cccnc1 (stereo not given) — lower, 94 to 95 °C
- Cc1cc(Nc2ncnc3ccc(-c4ccoc4)cc23)ccc1OCc1ccccn1 — lower, 206 to 208 °C
- O=C(Nc1ccc(Cl)cc1)N(CCCN1CCC(Cc2ccccc2)CC1)c1ccc(Cl)c(Cl)c1 — lower, 128 to 131 °C
- CCCCCCCCCCCCc1cc(NC(=O)Nc2c(C(C)C)cccc2C(C)C)on1 — lower, 112 to 114 °C
- Cc1cc(Cl)ccc1NC(=O)n1nc(Oc2cccc(C(F)(F)F)c2)cc1C — lower, 95 to 96 °C
- Cn1cc(C2=C(c3c4n(c5ccccc35)CCCC4)C(=O)NC2=O)c2ccccc21 — higher, 286 to 289 °C
- O=C1Nc2ccc(F)cc2C(C#Cc2ccccc2)(C(F)(F)F)N1 (racemic) — lower, 107 °C
- COCNC(=O)CNC(=O)OCc1ccccc1 — lower, 77 to 78 °C
- Cc1cc2c(cc1C#N)C(c1ccccn1)=CC(C)(C)CO2 — lower, 171 °C
- CSCCSc1nc(C(C)(C)C)n[nH]1 — lower, 114 to 116 °C
- CC(C)NC(=O)NCCn1c(CO)nc2c(N)nc3ccccc3c21 — higher, > 240 °C
- O=C1CCC(c2ccc(-c3ccc(Cl)cc3)o2)O1 (stereo not given) — lower, 100 to 101 °C
- CC(C)(CO)Nc1nc(SCc2cccc(Oc3ccccc3)c2)nc2nc(N)sc12 — lower, 126 to 130 °C
- CC(c1oc2ccccc2c(=O)c1-c1cccc(F)c1)n1nc(-c2cc(O)cc(F)c2)c2c(N)ncnc21 (stereo not given) — higher, 271 to 273 °C
- Cc1ccc(C)c(S(=O)(=O)n2c(CCCC(=O)O)cc3nc(Cl)ccc32)c1 — lower, 106 to 117 °C
- O=C(NC1CCCCC1)Oc1ccc(Oc2ccccc2)cc1 — lower, 166 to 168 °C
- O=C(NC(Cc1ccc(OCc2ccccc2)cc1)C(=O)O)c1cn2cc(-c3ccc(Cl)cc3)cnc2n1 (stereo not given) — higher, 252 to 253 °C
- Nc1ccc2cccc(N3CCNCC3)c2c1 — lower, 184 to 186 °C
- Cc1cc2c(cc1C)OCCC(C(=O)O)=C2 — higher, 266 to 267 °C
